Assay results from the supplement of paper PMC10307832.

Legend:
Experiment in all cases: relative viability (nuclei count vs DMSO), 5 days (fraction); higher = more cells survive
TPCA-1 + AZD7762 = compound: C1=CC(=CC=C1C2=CC(=C(S2)NC(=O)N)C(=O)N)F [TPCA-1] + NC(=O)Nc1cc(-c2cccc(F)c2)sc1C(=O)N[C@H]1CCCNC1 [AZD7762] (partner 0.2 µM)
Summary of the method: (§1)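 Relative viability divides the nuclei count in treated wells by that in vehicle wells. Lung cancer cell lines were seeded in 1536-well plates, dosed by pin tool the next day, and fixed and stained after 5 days in one step with final 0.05% Triton X-100, 1% formaldehyde and 1 ug/ml Hoechst. Dosing was a single drug or a fixed anchor-drug dose plus five library-drug doses (not always all listed) in √10 steps, and values are medians of duplicate plates imaged at 4×.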

[1] = compound: C1/C(=C\C2=CC=CS2)/C(=O)/C(=C/C3=CC=CS3)/C1 + O=C(c1cc(Cc2n[nH]c(=O)c3ccccc23)ccc1F)N1CCN(C(=O)C2CC2)CC1 [Olaparib] (partner 8 µM)
Summary of the method: as §1

TPCA-1 + Pictilisib = compound: C1=CC(=CC=C1C2=CC(=C(S2)NC(=O)N)C(=O)N)F [TPCA-1] + CS(=O)(=O)N1CCN(Cc2cc3nc(-c4cccc5[nH]ncc45)nc(N4CCOCC4)c3s2)CC1 [Pictilisib] (partner 1 µM)
Summary of the method: as §1

TPCA-1 + Dasatinib = compound: C1=CC(=CC=C1C2=CC(=C(S2)NC(=O)N)C(=O)N)F [TPCA-1] + Cc1nc(Nc2ncc(C(=O)Nc3c(C)cccc3Cl)s2)cc(N2CCN(CCO)CC2)n1 [Dasatinib] (partner 0.075 µM)
Summary of the method: as §1

| Cell Line | relative viability (TPCA-1 + AZD7762; first compound 0.04 µM) | relative viability (TPCA-1 + AZD7762; first compound 0.1265 µM) | relative viability (TPCA-1 + AZD7762; first compound 0.4 µM) | relative viability (TPCA-1 + AZD7762; first compound 1.265 µM) | relative viability (TPCA-1 + AZD7762; first compound 4 µM) | relative viability ([1]; first compound 0.2 µM) | relative viability ([1]; first compound 0.6325 µM) | relative viability ([1]; first compound 2 µM) | relative viability ([1]; first compound 6.325 µM) | relative viability ([1]; first compound 20 µM) | relative viability (TPCA-1 + Pictilisib; first compound 0.04 µM) | relative viability (TPCA-1 + Pictilisib; first compound 0.1265 µM) | relative viability (TPCA-1 + Pictilisib; first compound 0.4 µM) | relative viability (TPCA-1 + Pictilisib; first compound 1.265 µM) | relative viability (TPCA-1 + Pictilisib; first compound 4 µM) | relative viability (TPCA-1 + Dasatinib; first compound 0.04 µM) | relative viability (TPCA-1 + Dasatinib; first compound 0.1265 µM) | relative viability (TPCA-1 + Dasatinib; first compound 0.4 µM) | relative viability (TPCA-1 + Dasatinib; first compound 1.265 µM) | relative viability (TPCA-1 + Dasatinib; first compound 4 µM) |
| --- | --- | --- | --- | --- | --- | --- | --- | --- | --- | --- | --- | --- | --- | --- | --- | --- | --- | --- | --- | --- |
| HCC-15 | 1.31 | 1.09 | 1.21 | 1.28 | 1.15 | 0.784 | 0.771 | 0.707 | 0.656 | 0.66 | 0.901 | 0.559 | 0.766 | 0.864 | 0.275 | 0.735 | 0.495 | 0.592 | 0.523 | 0.392 |
| HCC-78 | 0.745 | 0.742 | 0.801 | 0.545 | 0.497 | 0.794 | 0.872 | 0.906 | 0.87 | 0.81 | 0.242 | 0.194 | 0.21 | 0.203 | 0.103 | 0.485 | 0.452 | 0.402 | 0.413 | 0.297 |
| HCC-366 |  | 0.297 | 0.312 | 0.185 | 0.147 | 0.382 | 0.35 | 0.41 | 0.269 | 0.353 | 0.182 | 0.13 | 0.177 | 0.117 | 0.124 | 0.729 | 0.55 | 0.664 | 0.539 | 0.233 |
| HCC-827 | 0.209 | 0.209 | 0.227 | 0.224 | 0.181 | 0.589 | 0.582 | 0.72 | 0.646 | 0.597 | 1.21 | 0.868 | 1.04 | 0.81 | 0.744 | 0.299 | 0.199 | 0.391 | 0.293 | 0.155 |
| HOP-62 | 0.554 | 0.557 | 0.669 | 0.523 | 0.436 | 0.433 | 0.596 | 0.391 | 0.359 | 0.272 | 0.964 | 0.57 | 0.734 | 0.123 | 0.186 | 0.874 | 0.642 | 0.689 | 0.539 | 0.671 |
| LC-2-ad | 0.883 | 0.803 | 0.837 | 0.83 | 0.221 | 0.73 | 0.728 | 0.684 | 0.577 | 0.713 | 0.644 | 0.376 | 0.488 | 0.322 | 0.0862 | 0.79 | 0.417 | 0.544 | 0.524 | 0.212 |
| LCLC-97TM1 | 0.231 | 0.237 | 0.223 | 0.164 | 0.217 | 0.459 | 0.389 | 0.344 | 0.275 | 0.347 | 0.183 | 0.157 | 0.199 | 0.151 | 0.111 | 0.94 | 0.679 | 0.772 | 0.658 | 0.717 |
| LCLC-103H | 0.896 | 0.84 | 0.824 | 0.617 | 0.8 | 0.738 | 0.795 | 0.739 | 0.68 | 0.722 | 0.659 | 0.593 | 0.553 | 0.587 | 0.656 | 0.518 | 0.447 | 0.481 | 0.397 | 0.465 |
| LK-2 | 0.593 |  | 0.53 | 0.392 | 0.131 | 0.769 | 0.787 | 0.765 | 0.853 | 0.753 | 0.721 | 0.349 | 0.615 | 0.662 | 0.442 | 0.255 | 0.226 | 0.386 | 0.241 | 0.237 |
| LOU-NH91 | 0.781 | 0.719 | 0.724 | 0.68 | 0.697 | 0.943 | 0.899 | 0.915 | 0.872 | 0.928 | 0.527 | 0.438 | 0.563 | 0.507 | 0.469 | 0.558 | 0.558 | 0.38 | 0.43 | 0.52 |
| LU99A | 0.356 | 0.364 | 0.412 | 0.281 | 0.247 | 0.225 | 0.255 | 0.279 | 0.222 | 0.234 | 0.299 | 0.29 | 0.317 | 0.303 | 0.25 | 0.509 | 0.522 | 0.619 | 0.356 | 0.366 |
| LXF-289 | 1.1 | 1.09 | 1.1 | 1.07 | 0.774 | 1.06 | 1.07 | 1.06 | 0.936 | 1.02 | 0.836 | 0.698 | 0.797 | 0.735 | 0.499 | 0.24 | 0.225 | 0.267 | 0.134 | 0.104 |
| NCI-H23 | 0.338 | 0.261 | 0.21 | 0.235 | 0.223 | 0.398 | 0.324 | 0.301 | 0.382 | 0.309 | 0.529 | 0.342 | 0.519 | 0.5 | 0.184 | 1.04 | 0.711 | 0.879 | 0.758 | 0.402 |
| NCI-H322M | 0.608 | 0.555 | 0.538 | 0.579 | 0.519 | 0.827 | 0.776 | 0.822 | 0.783 | 0.762 | 0.587 | 0.494 | 0.529 | 0.532 | 0.464 | 0.267 | 0.261 | 0.244 | 0.281 | 0.238 |
| NCI-H358 | 0.467 | 0.406 | 0.73 | 0.501 | 0.312 | 0.862 | 0.715 | 0.657 | 0.443 | 0.492 | 0.309 | 0.272 | 0.349 | 0.335 | 0.236 | 0.193 | 0.135 | 0.173 | 0.152 | 0.117 |
| NCI-H441 | 1.21 | 0.915 | 1.19 | 1.04 | 1 | 0.556 | 0.493 | 0.532 | 0.404 | 0.569 | 0.565 | 0.377 | 0.4 | 0.216 | 0.195 | 0.882 | 0.559 | 0.688 | 0.245 | 0.274 |
| NCI-H460 | 0.676 | 0.684 | 0.738 | 0.622 | 0.731 | 0.548 | 0.455 | 0.503 | 0.398 | 0.449 | 0.421 | 0.246 | 0.332 | 0.339 | 0.216 | 0.707 | 0.421 | 0.496 | 0.465 | 0.361 |
| NCI-H596 | 1.21 | 1.04 | 1.19 | 1.44 | 1.02 | 0.674 | 0.727 | 0.767 | 0.596 | 0.665 | 0.402 | 0.353 | 0.196 | 0.388 | 0.387 | 0.661 | 0.559 | 0.599 | 0.597 | 0.763 |
| NCI-H647 | 0.618 | 0.447 | 0.629 | 0.451 | 0.327 | 0.776 | 0.482 | 0.433 | 0.501 | 0.573 | 0.494 | 0.283 | 0.42 | 0.236 | 0.217 | 0.21 | 0.15 | 0.231 | 0.0911 | 0.079 |
| NCI-H650 | 1.03 | 0.895 | 1.1 | 0.541 | 0.906 | 0.575 | 0.425 | 0.376 | 0.378 | 0.423 | 0.928 | 0.864 | 1.03 | 0.538 | 0.787 | 0.464 | 0.436 | 0.409 | 0.321 | 0.332 |
| NCI-H727 | 0.596 | 0.68 | 0.497 | 0.701 | 0.698 | 0.803 | 0.627 | 0.755 |  | 0.697 | 0.389 | 0.249 | 0.35 | 0.28 | 0.222 | 0.425 | 0.364 | 0.48 | 0.361 | 0.37 |
| NCI-H838 | 0.972 | 0.855 | 0.935 | 0.801 | 0.886 | 0.779 | 0.752 | 0.704 | 0.714 | 0.739 | 0.547 | 0.429 | 0.452 | 0.325 | 0.387 | 0.378 | 0.259 | 0.266 | 0.247 | 0.259 |
| NCI-H1355 | 0.831 | 0.7 | 0.756 | 0.675 | 0.707 | 0.742 | 0.76 | 0.727 | 0.657 | 0.736 | 0.487 | 0.325 | 0.427 | 0.227 | 0.224 | 0.836 | 0.652 | 0.716 | 0.599 | 0.519 |
| NCI-H1395 | 0.398 | 0.378 | 0.381 | 0.37 | 0.444 | 0.494 | 0.53 | 0.435 | 0.458 | 0.453 | 0.694 | 0.66 | 0.68 | 0.505 | 0.607 | 0.478 | 0.39 | 0.4 | 0.421 | 0.344 |
| NCI-H1437 | 1.19 |  | 1.14 | 1.03 | 0.906 | 0.667 | 0.618 | 0.634 | 0.563 | 0.617 | 0.508 | 0.439 | 0.423 | 0.538 | 0.29 | 0.462 | 0.368 | 0.565 | 0.408 | 0.325 |
| NCI-H1651 | 0.486 | 0.439 | 0.462 | 0.431 | 0.401 | 0.174 | 0.207 | 0.197 | 0.19 | 0.229 | 0.637 | 0.487 | 0.561 | 0.657 | 0.436 | 0.444 | 0.382 | 0.402 | 0.395 | 0.383 |
| NCI-H1666 | 0.895 | 0.659 | 0.79 | 0.714 | 0.757 | 0.76 | 0.769 | 0.77 | 0.69 | 0.708 | 0.419 | 0.35 | 0.412 | 0.561 | 0.404 | 0.842 | 0.829 | 0.828 | 0.805 | 0.677 |
